Molecules are shown by their SMILES.

The target in one test is lipoxygenase. Briefly: inhibition of lipoxygenase, enzyme assay according to the method of Blackwell and Flower. In kind it is biochemical.
The next test addresses cyclo-oxygenase. The test is described as follows: inhibition of cyclo-oxygenase, enzyme assay according to the method of Blackwell and Flower. In kind it is biochemical.

Chain of cyclo-oxygenase (P23219 24-599): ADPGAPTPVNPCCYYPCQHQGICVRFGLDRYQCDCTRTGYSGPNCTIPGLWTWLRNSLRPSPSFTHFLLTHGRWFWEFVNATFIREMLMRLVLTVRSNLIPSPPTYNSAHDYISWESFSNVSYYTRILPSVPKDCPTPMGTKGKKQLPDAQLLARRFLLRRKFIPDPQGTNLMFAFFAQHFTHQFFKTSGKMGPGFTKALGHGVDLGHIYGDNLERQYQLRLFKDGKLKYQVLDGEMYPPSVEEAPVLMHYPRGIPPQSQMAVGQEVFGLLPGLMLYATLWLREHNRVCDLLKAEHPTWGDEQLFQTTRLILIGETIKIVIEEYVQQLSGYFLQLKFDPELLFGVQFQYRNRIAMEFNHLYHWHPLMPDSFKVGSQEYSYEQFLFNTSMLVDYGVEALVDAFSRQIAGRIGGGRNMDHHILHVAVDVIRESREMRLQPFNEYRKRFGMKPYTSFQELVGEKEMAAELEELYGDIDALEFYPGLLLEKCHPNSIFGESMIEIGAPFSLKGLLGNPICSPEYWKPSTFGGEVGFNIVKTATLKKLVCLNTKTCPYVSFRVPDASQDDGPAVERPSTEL

As for `FC(F)(F)c1cccc(N2CCC(N=Cc3ccc[nH]3)=N2)c1` [Example 3, 3-(2-pyrrolylmethyleneamino)-1-(3-trifluoromethylphenyl)-2-pyrazoline], the values for the IC50 against lipoxygenase and against cyclo-oxygenase were 1000 nM and under 1000 nM, respectively.
On to `FC(F)(F)c1cccc(N2CCC(N=Cc3ccccc3)=N2)c1` [Example 15, 3-Benzylideneamino-1-(3-trifluoromethylphenyl)-2-pyrazoline], for which the IC50 against lipoxygenase was under 1000 nM; at cyclo-oxygenase, about 3000 nM.
Regarding `FC(F)(F)c1cccc(N2CCC(N=Cc3ccccn3)=N2)c1` [Example 2, 3-(2-pyridylmethyleneamino)-1-(3-trifluoromethylphenyl)-2-pyrazoline], the IC50 against lipoxygenase is about 3000 nM; at cyclo-oxygenase, 1000 nM.
On the same counts, the results for `CC(C)(C)c1cccc(N2CCC(N)=N2)c1` [Example 13, 3-Amino-1-(3-t-butylphenyl)-2-pyrazoline] are under 1000 nM and under 1000 nM.
On the same counts, the results for `Oc1ccccc1C=NC1=NN(c2ccc(Br)c(C(F)(F)F)c2)CC1` [Example 11, 1-(4-bromo-3-trifluoromethylphenyl)-3-(2-hydroxybenzylideneamino)-2-pyrazoline] are over 10000 nM and about 5000 nM.
`CC1CN(c2cccc(C(F)(F)F)c2)N=C1N=Cc1ccccc1O` (stereo not shown) [Example 18, 4-Methyl-3-salicylideneamino-1-(3-trifluoromethylphenyl)-2-pyrazoline]: the IC50 at lipoxygenase and at cyclo-oxygenase was about 1000 nM each time.
Turning to `FC(F)(F)c1cccc(N2CCC(N=Cc3cccc4ccccc34)=N2)c1` [Example 7, 3-(1-naphthylmethyleneamino)-1-(3-trifluoromethylphenyl)-2-pyrazoline], the IC50 amounted to 6000 nM at lipoxygenase and 10000 nM against cyclo-oxygenase.
For `Oc1ccccc1C=NC1=NN(c2cccc(C(F)(F)F)c2)CC1` [Example 4, 3-salicylideneamino-1-(3-trifluoromethylphenyl)-2-pyrazoline], in that order: about 3000 nM and about 3000 nM.
Take `O=C(O)CCCCOc1cccc(O)c1C=NC1=NN(c2cccc(C(F)(F)F)c2)CC1` [Example 1, 3-(2-4'-carboxybutoxy-6-hydroxybenzylideneamino)-1-(3-trifluoromethylphenyl)-2-pyrazoline]: the half-maximal inhibitory concentration (IC50) against lipoxygenase was 10000 to 20000 nM; at cyclo-oxygenase, under 3000 nM.
`Cc1ccc(C=NC2=NN(c3ccc4ccccc4c3)CC2)cc1` [Example 8, 3-(4-methylbenzylideneamino)-1-(2-naphthyl)-2-pyrazoline]: the IC50 came to 12000 nM on lipoxygenase and 5000 nM at cyclo-oxygenase.
For `COc1ccc(C=NC2=NN(c3ccc(Br)c(C(F)(F)F)c3)CC2)cc1` [Example 12, 1-(4-bromo-3-trifluoromethylphenyl)-3-(4-methoxybenzylideneamino)-2-pyrazoline], the IC50 against lipoxygenase and against cyclo-oxygenase was about 1000 nM in each case.

The term IC50 denotes the concentration that inhibits the measured activity by half. Higher therefore signals weaker potency.

The values above are taken from US4572913A, “Use of 3-(arylmethyleneamino)-1-aryl-2-pyrazolines in the prophylaxis and treatment of inflammation, pain, pyresis, and asthma” (Burroughs Wellcome Co., priority 1980, dated 1986).
